Data published in patent US11241424B2, “Pharmaceutical formulations for sustained release of sebacoyl dinalbuphine ester” (LUMOSA THERAPEUTICS CO., LTD., priority 2015, dated 2022).
Values joined by “and” are separate entries in the source; they are usually repeats but may differ in a detail not shown here. Equal entries are not always repeated.

Assays:
[1] = Solubility test of SDE in solvents and solvent systems (UPLC); format: physicochemical
Method: As used herein, the term “solubility” means the maximum amount of a solute (e.g., an active ingredient or a prodrug thereof) that can be dissolved in a given amount of a solvent at a particular temperature. Unless otherwise specified, the solubilities presented herein are at room temperature (e.g., 25-28° C.). The term “saturated concentration” refers to the concentration at which no more of a solute will dissolve in a solvent and additional amounts of solute will appear as a separate phase (e.g., as a precipitate).
Each of the solvent systems was prepared by mixing each component with the exact volume (pi) corresponding to the w/w % listed in Table 15. About 500 μl of each of the solvent systems was prepared and was vortexed for 3 minutes or more to fully mix each component. An appropriate amount of SDE was added into 250 μl of each of the solvent systems and the resulting mixtures were sonicated for 10 minutes. If the previously added SDE was completely dissolved, an additional 4-8 mg of SDE was added into the mixture and which was then sonicated for another 10 minutes. The step of adding 4-8 mg of SDE was repeated until the mixture was saturated to show undissolved SDE precipitates. All of the mixtures were sonicated for at least 30 minutes, and then centrifuged to collect the supernatants. The supernatants were treated with acetonitrile and then subjected to UPLC analysis.
Five groups of solvent systems containing 40% by weight of sesame oil were respectively prepared according to the method of Example 6 by using the compositions as listed in Table 17; and among them, five different alcohols (i.e., ethanol, 1-propanol, 2-propanol, 1-butanol, and tert-butanol) were used in the five groups. SDE was dissolved in each of the solvent systems till saturation by following the method of Example 6. The SDE concentrations in the supernatants collected from each of the samples (i.e. the saturated SDE concentration, or SDE solubility) were respectively determined by UPLC using the method of Example 6.

[2] = system: postoperative pain following hemorrhoidectomy; test: Phase 2/3 clinical study of F8 formulation; format: in vivo, human
Method: The subjects were divided into two groups, of which Group 1 (n=103) was treated with a single dose of intramuscular SDE 150 mg (2 mL), and Group 2 (n=106) was treated with a single dose of intramuscular placebo (2 mL). All subjects were given a single dose of SDE or placebo via intramuscular injection 24±12 hours before hemorrhoid surgery. The subjects were allowed to take rescue medication and monitored for 7 days after dosing. Statistical analyses were performed on the data to compare the two groups.
The primary efficacy endpoint was pain assessment calculated as the area under the curve of VAS pain intensity scores through 48 hours after surgery. The secondary efficacy endpoints included pain assessment measured with VAS; time from the end of operation to the first rescue medication dosing; the consumption of oral ketorolac. Pain intensity was assessed right before the first use of PCA ketorolac, and at 1±0.1, 2±0.1, 3±0.1, 4±0.25, 8±0.5, 12±0.5, 16±0.5, 20±0.5, 24±1, 28±1, 32±2, 36±2, 40±2, 44±2, 48±2 hours after the surgery, and was assessed during Days 3-7 in the morning and evening, as well as during special events such as bowel movements.
For the calculation of AUC, data were imputed with the use of the windowed worst observation carried forward plus last observation carried forward method. For subjects who used rescue medication for pain relief, their VAS scores recorded within the window of ketorolac medication (6 hours, which is one half-life of ketorolac) were replaced by the “worst” observation (i.e., the highest score before taking ketorolac), hereafter called “adjusted VAS scores.”
The AUC0-24 and AUC0-48 of the mean adjusted VAS scores of SDE and placebo groups were calculated by using the trapezoidal method and summarized in Table 10.

[3] = Bioavailability study of F8 formulation and Bain (whole blood nalbuphine); format: in vivo, human; conditions: mean, SDE 150 mg single IM as F8 formulation
Method: A total of twelve subjects completed the crossover study. […] There was a minimum 5-day washout period between period I and period II. In period I, the blood samples were drawn prior to the dosing, and 0.083, 0.25, 0.5, 1, 1.5, 2, 3, 4, 6, 8, 12, and 24 hours after dosing.

[4] = Phase I clinical trial of F8 formulation (safety, tolerability, pharmacokinetics); conditions: for AUC0-inf / AUC0-t / Cmax / T1/2 / Tmax: plasma nalbuphine, mean
Method: It was designed to evaluate safety and local tolerability and assess the pharmacokinetics of SDE following single dose intramuscular injection. The study enrolled a total of 28 healthy male subjects. All subjects were randomized to 5 cohorts. Cohort 1 (N=4) was treated with single dose Nubain® 17 mg (0.85 mL) via intramuscular injection. Cohorts 2-5 (N=6) were either treated with placebo (N=2) or treated with single dose SDE (N=4) at 75 mg (1 mL), 100 mg (1.33 mL), 125 mg (1.67 mL), and 150 mg (2 mL), respectively.
Heparinized blood samples were obtained before and at various time points following single dose administration of study medication. […] The subsequent analysis of the data involved non-compartmental pharmacokinetics analysis, i.e., Cmax, Tmax, AUC0-t, AUC0-inf, and T1/2.

[5] = Plasma nalbuphine after subcutaneous nalbuphine in dogs; format: in vivo
[6] = after i.v. dosing in dogs; cited from earlier work
[7] = 48 hours post-operation, SDE 150 mg IM (F8)
[8] = mITT, SDE 150 mg IM (F8) 24±12 hours before hemorrhoid surgery
[9] = SDE 75 mg single IM as F8 formulation
[10] = SDE 100 mg single IM as F8 formulation
[11] = SDE 125 mg single IM as F8 formulation
[12] = SDE 150 mg single IM as F8 formulation
[13] = dog, plasma, subcutaneous, 0.5 mg/kg

SMILES: O=C(CCCCCCCCC(=O)Oc1ccc2c3c1O[C@H]1[C@@H](O)CC[C@@]4(O)[C@@H](C2)N(CC2CCC2)CC[C@]314)Oc1ccc2c3c1O[C@H]1[C@@H](O)CC[C@@]4(O)[C@@H](C2)N(CC2CCC2)CC[C@]314 [SDE, sebacoyl dinalbuphine ester]
- effect of C2-C4 alcohol on the solubility of SDE (FIG. 11) ([1]; 2.5-30% by weight of the alcohol in solvent system with 40% sesame oil): significantly increased
- solubility of SDE in the formulations ([1]; 10% by weight of tert-Butanol replacing benzyl benzoate): about 210 mg/mL
- increase of the solubility of SDE in the solvent systems ([1]; 10% of alkyl alcohol added): at least 30%
- Solubility of SDE in the solvent ([1]; castor oil): about 13 mg/mL
- Solubility of SDE in the solvent ([1]; cottonseed oil): about 6 mg/mL
- solubility of SDE in ethanol, 1-propanol, or t-butanol ([1]; each alcohol alone): 10000 to 30000 µg/mL
- solubility of SDE when added to the mixture of benzyl benzoate and sesame oil ([1]; weight ratio of benzyl benzoate to sesame oil about 1.1): about 70 mg/mL
- solubility of SDE when added to the mixture of benzyl benzoate and sesame oil ([1]; weight ratio of benzyl benzoate to sesame oil about 1.5): about 150 mg/mL
- solubility of SDE when added to the mixture of benzyl benzoate and sesame oil ([1]; weight ratio of benzyl benzoate to sesame oil about 2.3): about 200 mg/mL
- solubility of SDE when added to the mixture of benzyl benzoate and sesame oil ([1]; weight ratio of benzyl benzoate to sesame oil about 9): greater than 300 mg/mL
- solubility of SDE in the formulations ([1]; without alkyl alcohol): about 160 mg/mL
- AUC0-final of adjusted VAS scores, Mean ± SD ([2]; 0 hr to 7 days after hemorrhoid operation, mITT, SDE 150 mg IM (F8)): 630.79±350.90
- consumption of oral ketorolac, Mean [2, 7]: 51.36 mg
- consumption of oral ketorolac, Median [2, 7]: 40.00 mg
- time for the first use of post-operational analgesic, Mean (SD) ([2]; mITT, SDE 150 mg IM (F8)): 12.57 hour and 12.57 (1.68) hour
- AUC0-24 of adjusted VAS pain intensity scores, Mean ± SD [2, 8]: 109.42 ± 55.04
- AUC0-48 of adjusted VAS pain intensity scores, Mean ± SD [2, 8]: 209.93±111.26
- adjusted VAS score compared with placebo ([2]; throughout the 7 days after the hemorrhoid operation): lower than the placebo group
- AUC0-inf [3]: 1832.0 ng·h/mL
- AUC0-t [3]: 1687.4 ng·h/mL
- Cmax [3]: 15.40 ng/mL
- MRT [3]: 149.38 h
- T1/2 [3]: 83.16 h
- Tmax [3]: 64.00 h
- duration of action ([4]; cohort receiving 125 mg SDE, from plasma nalbuphine above 3 ng/mL): about 6.5 days
- duration of action ([4]; cohort receiving 150 mg SDE, from plasma nalbuphine above 3 or 1 ng/mL): 6 to 12 days
- tolerability ([4]; escalating single IM doses of SDE up to 150 mg): well tolerated
- AUC0-inf [4, 9]: 692.27 ng·h/mL
- AUC0-t [4, 9]: 647.84 ng·h/mL
- Cmax [4, 9]: 5.45 ng/mL
- T1/2 [4, 9]: 55.75 h
- Tmax [4, 9]: 66 h
- AUC0-inf [4, 10]: 936.17 ng·h/mL
- AUC0-t [4, 10]: 811.34 ng·h/mL
- Cmax [4, 10]: 5.65 ng/mL
- T1/2 [4, 10]: 85.45 h
- Tmax [4, 10]: 66 h
- AUC0-inf [4, 11]: 1219.71 ng·h/mL
- AUC0-t [4, 11]: 1047.45 ng·h/mL
- Cmax [4, 11]: 7.31 ng/mL
- T1/2 [4, 11]: 89.83 h
- Tmax [4, 11]: 45 h
- AUC0-inf [4, 12]: 1353.16 ng·h/mL
- AUC0-t [4, 12]: 1214.98 ng·h/mL
- Cmax [4, 12]: 9.81 ng/mL
- T1/2 [4, 12]: 73.4 h
- Tmax [4, 12]: 60 h
- difference between SDE and placebo groups in number of AEs, subjects with AEs, severity and relatedness ([4]; single IM dose 75-150 mg): No significant difference
- severity of adverse events (AEs) ([4]; single IM dose, healthy male subjects): mild

SMILES: Oc1ccc2c3c1O[C@H]1[C@@H](O)CC[C@@]4(O)[C@@H](C2)N(CC2CCC2)CC[C@]314 [nalbuphine]
- concentration at 3 h [5, 13]: 9.9 ng/mL
- concentration at 4 h [5, 13]: 5.2 ng/mL
- effective plasma concentration of nalbuphine for analgesia in dog ([5]; inferred from 4 h plasma level and reported 4 h analgesia): about 5 ng/mL
- elimination half-life of nalbuphine [6]: about 1.2 hour
